Patent US20070218504A1, “HUMAN LEPTIN-DERIVED POLYPEPTIDES AND USES THEREOF” (UNIVERSITY OF PITTSBURGH, priority 2006, published 2007)
Entries after “also recorded” stand apart in the source; their conditions may differ.

Experiments:
[1] = test system: IL-6 induced activation of STAT3; assay: IL-6 induced activation of STAT3 in human primary hepatocytes; format: cell-based; conditions: even higher CRP concentration
From the text: (§1) Human hepatocytes were isolated from donor livers. Briefly, the livers were perfused in a three-step process. A calcium-free buffer supplemented with EGTA is used to break […] junctions, which is followed by the same perfusion buffer without EGTA. Finally, a calcium-containing buffer supplemented with digestive enzymes (collagenase and DNase) was used. Following digestion, parenchymal hepatocytes were isolated by three steps of low-speed centrifugation. Cells with a viability of at least 85% were plated and cultured in hepatocytes maintenance medium (HMM) (Cambrex BioScience, Walkersville, Md.) supplemented with 10% fetal bovine serum (FBS), 0.1 μM dexamethasone, 0.1 μM insulin, and 50 μg/ml gentamicin on collagen-coated tissue culture dishes for 2-4 hours. The cells were subsequently cultured in the above medium without FBS.
(§2) Approximately 24 hours after seeded, the hepatocytes were washed with serum-free HMM supplemented with 0.1 μM dexamethasone and 0.1 μM insulin, and then cultured in the same medium for another 48 hours. Subsequently, the cells were switched to serum-free HMM supplemented with 0.1 μM dexamethasone before stimulated with leptin (NHPP) or rhIL-6 (R&D Systems, Minneapolis, Minn.) for 24 hours or 48 hours. For experiments involving PI3-kinase inhibitors, hepatocytes were pretreated with LY294002 (EMD Biosciences, Calif.) for 1 hour before hormonal stimulation.

[2] = test system: tyrosine phosphorylation of STAT3; assay: Leptin-induced tyrosine phosphorylation of STAT3 in HEK293 cells over-expressing OB-Rb in the presence of CRP (Western blot); format: cell-based, human
Description: To determine if the interaction between CRP and leptin dampens the cellular actions of leptin, the ability of leptin to stimulate tyrosine phosphorylation of STAT3 and PI3-kinase activity was assessed in the presence of CRP in vitro. HEK293 cells over-expressing OB-Rb were serum starved for 2 hours before addition of leptin and CRP (CHEMICON or EMD Biosciences). Leptin, in the presence or absence of CRP, was pre-incubated in μ-MEM (with additional 1 mM Ca^2+) for 30 minutes at 37° C. before being applied to the cells. After a 30-minute incubation with leptin, the cells were harvested in lysis buffer (18). The resultant protein extract was subjected to a Western blot analysis using an anti-phospho-STAT3 specific antibody (Cell Signaling, Beverly, Mass.). For studies involving primary hypothalamic neurons, the hypothalamus from rats was surgically isolated immediately after euthanasia, and placed in the DMEM for incubation with leptin in the presence or absence of CRP.

ob/ob mice = assay: Co-infusion of polypeptide E with human CRP and leptin through mini-osmotic pumps into ob/ob mice; format: in vivo, mouse
Description: FIG. 11. […] Infusion dosages for human CRP and leptin were 48 μg/day/mouse and 12 μg/day/mouse, respectively. The infusion rate for Pep-E (P) was 24 μg/day/mouse (medium dosage, “m”) and 48 μg/day/mouse (high dosage, “h”). Food-intake (A and C) and body weight (B and D) were monitored daily throughout the infusion. The arrows in A-D indicate the day of surgery. At the end of infusion, blood samples were collected for the measurement of blood-glucose, human CRP, and human leptin. The serum concentrations of human CRP and human leptin were 0.85±0.1 μg/ml and 18 ng±2 ng/ml, respectively. […] Also shown is glucose concentration from mice infused with human CRP and leptin but not with Pep-E.
In the in vivo experiment, polypeptide E was co-infused through mini-osmotic pumps with human CRP and leptin into the ob/ob mice. Food intake in the period of 24 hours and body weight were followed during the infusion period (FIGS. 11A-11D).

CRP = assay: Leptin's effect on CRP secretion and expression in human hepatocytes (Western, real-time RT-PCR); format: cell-based
From the text: as §1, §2
Hepatocytes were isolated and treated as described in Example 4. Culture medium was centrifuged to remove detached cells and then heated at 95° C. for 5 minutes in SDS-sample buffer (Boston Bioproducts, Mass.). After separation on 10% SDS polyacrylamide gels, proteins were electro-transferred overnight to nitrocellulose membranes. Pre-blocked using 5% non-fat milk in PBS with 0.5% Tween 20, the membranes were incubated with appropriate primary antibody for 2 hours at room temperature, washed and incubated for 1 hour with a corresponding […] at room temperature. […]
CRP mRNA expression was measured by quantitative real-time RT-PCR. […]

| Substance | effect on IL-6 induced activation of STAT3 [1] | calcium dependence of attenuation of leptin signaling ([2]; excess EGTA added to the medium) | effect of CRP on human leptin-induced tyrosine phosphorylation of STAT3 ([2]; HEK293 OB-Rb) | effect of CRP on human leptin-induced tyrosine phosphorylation of STAT3 ([2]; HEK293 OB-Rb, listed as Human CRP) | effect of CRP on murine leptin-induced tyrosine phosphorylation of STAT3 ([2]; murine/mouse leptin, HEK293 OB-Rb) | serum concentration of human CRP (ob/ob mice; end of infusion, 48 μg/day/mouse) [ng/mL] | effect of human CRP on satiety and weight-reducing effects of human leptin in the absence of the polypeptide (ob/ob mice; human CRP 48 μg/day/mouse, leptin 12 μg/day/mouse) | effect on CRP gene expression, short treatment (CRP; 6-8 hours) | effect on secreted CRP in the culture medium (CRP; human hepatocytes, physiological leptin concentrations, 24 hours) | effect on human CRP mRNA expression (CRP; real-time PCR) |
| --- | --- | --- | --- | --- | --- | --- | --- | --- | --- | --- |
| human CRP: human C-reactive protein, purified preparation from a commercial source | did not suppress | requires the presence of calcium ions | attenuating effects; also recorded: caused the reduction of leptin-stimulated STAT3 activation; also recorded: attenuate | suppressed the activation of STAT3; also recorded: suppresses activation of STAT3 | does not have attenuation effect; also recorded: unable to block | 850 ± 100 | able to block the satiety and weight-reducing effects |  |  |  |
| human leptin: human recombinant leptin |  |  |  |  |  |  |  | did not influence CRP gene expression | dose-dependent positive effect | dosage-dependent effect |
